# Legend:
# [1] = Bioavailability (tests not described); format: in vivo; conditions: salt forms
# [2] = Storage properties (standard tests, not described); format: physicochemical; conditions: salt forms
# [3] = test system: dengue virus serotype 2 strain New Guinea C; test: Cell-based flavivirus immunodetection (CFI) assay; conditions: for EC50: Dengue virus, A549, read-out: EC50 in the CFI assay for dengue virus
# Text: (§1) The CFI assay is based on quantitative immunodetection of the viral envelope protein, E, as a readout for viral load in target cells. In the CFI assay, the compounds of the invention show activity against dengue virus (e.g. dengue virus serotype 2). […] The HCV replicon contains an inserted firefly luciferase construct in its sequence. The genome of the HCV replicon is maintained as RNA species in a Huh-7 cell line (Krieger et al. Journal of Virology 2001; 75(10):4614-24). Measurement of luciferase activity is used as a surrogate marker for viremia in target cells.
# 50% effective concentration (EC50), is the concentration of the test compound that decreases the signal generated by the virus by 50%. It is calculated using nonlinear regression analysis using the variable slope sigmoidal dose-response curve, with commercial software such as Prism or ActivityBase.
# A549 cells (e.g. available from ATCC #CCL-185) are trypsinized, counted and diluted to 2×10^5 cells/ml in Hams F-12 media supplemented with 2% fetal bovine serum and 1% penicillin/streptomycin. 2×10^4 cells are dispensed in clear 96-well tissue culture plate per well and placed at 37° C., 5% CO2 overnight. On the next day, the cells are infected with virus (dengue serotype 2, NGC strain, e.g. available from ATCC #VR-1584) at multiplicity of infection (MOI) of 0.3 in the presence of varied concentrations of test compounds for 1 hour at 37° C. and 5% CO2 in the same media. The medium containing virus and the compounds is removed, replaced with fresh medium containing only the test compounds and incubated at 37° C., 5% CO2 for another 48 hours. The cells are washed once with PBS and fixed with cold methanol for 10 min. After washing twice with PBS, the fixed cells are blocked with PBS containing 1% FBS and 0.05% Tween-20 for 1 hour at room temperature. The primary antibody solution (4G2) is then added at a concentration of 1:20 to 1:100 in PBS containing 1% FBS and 0.05% Tween-20 for 3 hours. The cells are then washed three times with PBS followed by one hour incubation with horseradish peroxidase (HRP)-conjugated anti-mouse IgG (Sigma, 1:2000 dilution). After washing three times with PBS, 50 μL of 3,3′,5,5′-tetramethylbenzidine (TMB) substrate solution (Sigma) is added to each well for two minutes. The reaction is stopped by addition 0.5M sulfuric acid. The plates are read at 450 nm absorbance for viral load quantification. After measurement, the cells are washed three times with PBS, followed by incubation with propidium iodide for 5 min. The plate is read in a Tecan Safire plate reader (excitation 537 nm, emission 617 nm) for cell number quantification. Dose response curves are plotted from the mean absorbance versus the log of the concentration of test compounds. The EC50 is calculated by nonlinear regression analysis. A positive control may be used, such as, for example, (2R,3R,4R,5R)-2-(4-amino-pyrrolo[2,3-d]pyrimidin-7-yl)-3-ethynyl-5-hydroxymethyl-tetrahydrofuran-3,4-diol.
# HCV replicon = test: Cell-based HCV replicon assay (Huh-luc/neo-ET, luciferase); design: species or system Hepatitis C virus; conditions: for EC50: Hepatitis C virus, Huh-7 cell line, luciferase readout
# Text: as §1
# HVC replicon-containing cells, Huh-luc/neo-ET (e.g. as described in Krieger et al., Journal of Virology, 2001; 75(10):4614-24), are maintained in DMEM medium containing 2 mM […], 0.1 mM non-essential amino acid solution, 10% heat-inactivated fetal bovine serum and […] Geneticin®, G418 sulfate solution. The cells are kept between 20 to 80% confluency and are trypsinized with trypsin (0.05%)/EDTA solution. After trypsinization, cells are resuspended in supplemented DMEM phenol red-free medium (DMEM phenol red free supplemented with 2 mM L-glutamine, 0.1 mM non-essential amino acid solution, 10% of heat-inactivated fetal bovine serum and 1 mM sodium pyruvate) and pelleted by centrifugation at 420 g for 5 min. Cell density is calculated and diluted to 1×10^5 cells/mL with phenol red-free medium.
# Two sets of plates are prepared, a white opaque 96-well plate for the luciferase reading and a 96-well clear plate for cytotoxicity measurement. Each well is seeded with 10,000 cells/well and incubated overnight at 37° C., 5% CO2. After incubation, the medium is aspirated and phenol red free medium supplemented with various concentrations of compounds is added and the plates further incubated for at 37° C., 5% CO2 for another 48 hours. A positive control may be used, such as, for example, (2R,3R,4R,5R)-2-(4-amino-pyrrolo[2,3-d]pyrimidin-7-yl)-3-ethynyl-5-hydroxymethyl-tetrahydrofuran-3,4-diol.
# For determination of luciferase activity, the plates are removed from the incubator to allow them to equilibrate to room temperature for 30 minutes and luciferase activity is measured after the addition of 100 μL of the Britelite® (PerKin Elmer) prepared according to manufacturer's instructions.
# TSV01 dengue virus 2 = test: Mouse model of dengue virus infection (viremia by plaque assay); format: in vivo, AG129 mice
# Procedure: The compounds of the invention also show activity in vivo in a mouse model of dengue infection (Schul et al. Journal of Infectious Diseases 2007; 195:665-74). Briefly, AG129 mice (B&K Universal Ltd, Hull, UK) are housed in individually ventilated cages (TechniPlast, Italy) and used between 6 and 10 weeks of age. Mice are injected intraperitoneally with 0.6 ml TSV01 dengue virus 2 suspension. Blood samples are taken by retro orbital puncture under isoflurane anaesthesia. Blood samples are collected in tubes containing sodium citrate to a final concentration of 0.4%, and immediately centrifuged for 3 minutes at 6000 g to obtain plasma. 20 μL of plasma is diluted in 780 μL RPMI1640 medium and snap frozen in liquid nitrogen for plaque assay analysis. Remaining plasma is used for cytokine and NS1 protein level determination. Mice develop dengue viremia rising over several days, peaking on day 3 post-infection.
# For testing of antiviral activity, a compound of the invention is dissolved in vehicle fluid, e.g. 10% ethanol, 30% PEG 300 and 60% D5W (5% dextrose in water); or 6N HCl (1.5 eq): 1N
# NaOH (pH adjusted to 3.5): 100 mM citrate buffer pH 3.5 (0.9% v/v: 2.5% v/v: 96.6% v/v). Thirty six 6-10 week old AG129 mice are divided into six groups of six mice each. All mice are infected with dengue virus as described above (day 0). Group 1 is dosed by oral gavage of 200 μL/mouse with 13 mg/kg of a compound of the invention twice a day (once early in the morning and once late in the afternoon) for three consecutive days starting on day 0 (first dose just before dengue infection). […] Thus, Groups 1 and 2 are dosed with a compound of the invention at 13 mg/kg and 32 mg/kg respectively, and Groups 3 and 4 are dosed with another compound of the invention at 13 mg/kg and 32 mg/kg respectively. A positive control may be used, such as, e.g., (2R,3R,4R,5R)-2-(4-amino-pyrrolo[2,3-d]pyrimidin-7-yl)-3-ethynyl-5-hydroxymethyl-tetrahydrofuran-3,4-diol, dosed by oral gavage of 200 μL/mouse the same way as the previous groups. A further group is treated with only vehicle fluid.
# On day 3 post-infection approximately 100 μL blood samples, anti-coagulated with sodium citrate, are taken from the mice by retro-orbital puncture under isoflurane anaesthesia. Plasma is obtained from each blood sample by centrifugation and snap frozen in liquid nitrogen for plaque assay analysis. The collected plasma samples are analyzed by plaque assay as described in Schul et al. Journal of Infectious Diseases 2007; 195:665-74. Cytokines are also analysed as described in Schul et al. Journal of Infectious Diseases 2007; 195:665-74. NS1 protein levels are analysed using a Platelia® kit (BioRad Laboratories). An anti-viral effect is indicated by a reduction in cytokine levels and/or NS1 protein levels.
# [4] = 32 mg/kg bid, oral gavage, 3 days, AG129 mice
Compound,bioavailability (in words) [1],storage properties (in words) [2],activity in the CFI assay (in words) [3],EC50 [3] [nM],activity in the HCV replicon assay (in words) (HCV replicon),EC50 (HCV replicon) [nM],reduction in viremia (TSV01 dengue virus 2; [4]),activity in vivo in a mouse model of dengue virus infection (in words) (TSV01 dengue virus 2),"reduction in viremia (TSV01 dengue virus 2; 25 mg/kg, mouse model of dengue virus infection)"
"C#C[C@@]1(O)[C@H](O)[C@@H](CO)O[C@H]1n1ccc2c(N)ncnc21.C#C[C@@]1(O)[C@H](O)[C@@H](CO)O[C@H]1n1ccc2c(N)ncnc21.O=S(=O)(O)c1cccc2c(S(=O)(=O)O)cccc12 [(2R,3R,4R,5R)-2-(4-amino-pyrrolo[2,3-d]pyrimidin-7-yl)-3-ethynyl-5-hydroxymethyl-tetrahydrofuran-3,4-diol napadisylate 2:1 salt]",good bioavailability,good storage properties,,,,,,,
"C#C[C@@]1(O)[C@H](OC(=O)[C@@H](N)C(C)C)[C@@H](CO)O[C@H]1n1ccc2c(N)ncnc21 [Compound 3, (S)-2-Amino-3-methyl-butyric acid (2R,3R,4R,5R)-5-(4-amino-pyrrolo[2,3-d]pyrimidin-7-yl)-4-ethynyl-4-hydroxy-2-hydroxymethyl-tetrahydro-furan-3-yl ester]",,,exhibit activity,~860,exhibit activity,~66,about 45 fold,exhibit activity,
"C#C[C@@]1(O)[C@H](OC(=O)C(C)C)[C@@H](CO)O[C@H]1n1ccc2c(N)ncnc21 [Compound 4, Isobutyric acid (2R,3R,4R,5R)-5-(4-amino-pyrrolo[2,3-d]pyrimidin-7-yl)-4-ethynyl-4-hydroxy-2-hydroxymethyl-tetrahydro-furan-3-yl ester]",,,exhibit activity,~318,exhibit activity,,about 113 fold,exhibit activity,
"C#C[C@@]1(O)[C@H](OC(=O)C(C)C)[C@@H](COC(=O)C(C)C)O[C@H]1n1cc(C(N)=O)c2c(N)ncnc21 [Compound 10, Isobutyric acid (2R,3R,4R,5R)-5-(4-amino-5-carbamoyl-pyrrolo[2,3-d]pyrimidin-7-yl)-4-ethynyl-4-hydroxy-2-isobutyryloxymethyl-tetrahydro-furan-3-yl ester]",,,exhibit activity,~440,exhibit activity,~35,,exhibit activity,about 30 fold
"(2R,3R,4R,5R)-2-(4-amino-pyrrolo[2,3-d]pyrimidin-7-yl)-3-ethynyl-5-hydroxymethyl-tetrahydrofuran-3,4-diol salicylate salt",good bioavailability,good storage properties,,,,,,,

# From US20100144655A1, “ORGANIC COMPOUNDS” (NOVARTIS AG, priority 2008, published 2010)
